From US20020061840A1, “Tripeptide compounds useful as selective inhibitors of aminopeptidase A and corresponding pharmaceutical compositions” (priority 2000, published 2002)

These compounds were tested against T1, Aminopeptidase N (Sus scrofa, UniProt P15145) (assay: In vitro inhibiting power on aminopeptidase N (Ala-Na substrate)). Conditions: APN purified from pig's kidney, 200 μM Ala-Na, 37° C., Tris HCl pH 7.4.
T1 construct: Aminopeptidase N purified from pig's kidney; purchased Böehringer Mannheim (Meylan, France); host or cells: pig's kidney
T1 sequence (P15145 1-963): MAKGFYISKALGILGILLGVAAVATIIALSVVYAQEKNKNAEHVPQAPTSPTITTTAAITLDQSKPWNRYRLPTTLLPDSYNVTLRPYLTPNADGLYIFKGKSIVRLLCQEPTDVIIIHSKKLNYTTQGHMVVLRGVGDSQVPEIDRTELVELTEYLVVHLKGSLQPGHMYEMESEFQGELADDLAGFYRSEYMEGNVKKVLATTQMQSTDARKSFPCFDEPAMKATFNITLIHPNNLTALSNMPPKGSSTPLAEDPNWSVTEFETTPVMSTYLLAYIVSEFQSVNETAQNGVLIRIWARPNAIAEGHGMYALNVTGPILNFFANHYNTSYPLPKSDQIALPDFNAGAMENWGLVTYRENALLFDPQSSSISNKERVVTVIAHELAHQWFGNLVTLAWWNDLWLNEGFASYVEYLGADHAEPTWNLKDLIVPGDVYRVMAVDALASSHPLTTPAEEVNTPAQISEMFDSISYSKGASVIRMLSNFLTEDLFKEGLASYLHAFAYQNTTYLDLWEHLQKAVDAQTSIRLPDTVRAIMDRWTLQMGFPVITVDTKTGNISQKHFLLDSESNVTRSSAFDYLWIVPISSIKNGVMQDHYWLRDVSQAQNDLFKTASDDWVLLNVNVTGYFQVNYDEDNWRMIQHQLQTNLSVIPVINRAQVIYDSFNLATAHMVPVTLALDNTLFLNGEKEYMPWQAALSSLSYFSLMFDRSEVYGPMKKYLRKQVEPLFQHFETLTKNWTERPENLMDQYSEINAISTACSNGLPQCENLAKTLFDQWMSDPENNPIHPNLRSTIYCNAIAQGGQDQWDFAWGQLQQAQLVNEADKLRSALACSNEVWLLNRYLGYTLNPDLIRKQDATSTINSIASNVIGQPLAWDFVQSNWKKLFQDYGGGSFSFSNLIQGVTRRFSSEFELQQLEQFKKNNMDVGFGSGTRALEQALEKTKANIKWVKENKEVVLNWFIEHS
Assay type: biochemical
Procedure: b)) In vitro study of the inhibiting power of the synthesised compounds on aminopeptidase N.
1°) Source of the Enzyme.
Aminopeptidase N purified from pig's kidney is marketed by Böehringer Mannheim (Meylan, France).
The APN is incubated for 10 min at 37° C. in the absence or in the presence of increasing concentrations of inhibitors in a total volume of 100 μl in Tris HCl buffer (50 mM, pH =7.4. 200 μM of Ala-Na are added and the whole thing is incubated for 30 min at 37° C. The reaction is stopped by the addition of 10 μl of CH3COO—Na 1M (pH=4.2). The absorption is measured at 400 nm and compared with that of a standard range of 2-naphthyiamine.

Structure (SMILES) | Ki [µM]
CCC(C)C(NC(=O)C(S)C(N)CCP(=O)(O)O)C(=O)NC(CCC(=O)O)C(=O)O (single isomer, unassigned) [Example 4A] | > 5
CCC(C)C(NC(=O)C(S)C(N)CCP(=O)(O)O)C(=O)NC(CCC(=O)O)C(=O)O (single isomer, unassigned) [Example 4B] | > 5
CC[C@H](C)[C@H](NC(=O)[C@@H](S)[C@H](N)CCC(=O)O)C(=O)N1CC[C@@H](C(=O)O)[C@H]1C(=O)O [Example 3A, [[(2S ,3R)-3-amino-5-carboxy-2-mercapto]pentanoyl]-LIIe-L.(3R)(3-COOH)Pro-OH] | > 5
CC[C@H](C)[C@H](NC(=O)[C@H](S)[C@H](N)CCC(=O)O)C(=O)N1CC[C@@H](C(=O)O)[C@H]1C(=O)O [Example 3B, [[(2R,3R), 3-amino-5-carboxy-2-mercapto]-pentanoyl]-L.IIe-L.(3R)(3-COOH)Pro-OH] | > 5

The remaining lines, values ahead:

Ki [µM] | Structure (SMILES)
> 50 | CCC(C)C(NC(=O)C(S)C(N)CCS(=O)(=O)O)C(=O)NC(CCC(=O)O)C(N)=O (single isomer, unassigned) [Example 8A]
> 50 | CCC(C)C(NC(=O)C(S)C(N)CCS(=O)(=O)O)C(=O)NC(CCC(=O)O)C(N)=O (single isomer, unassigned) [Example 8B]
